# Reference: patent US11560395B2, “Azithromycin derivatives containing a phosphonium ion as anticancer agents” (Rising Tide Foundation, priority 2017, dated 2023)
# Test system: MDA-231 cancer cells
# Test: Inhibition of proliferation assay, cell confluence (IncuCyte live cell imaging)
# Format: cell-based
# Conditions: MDA-231 cells, concentration 10 uM; relative confluence normalised to time zero, images every 3 h over 4-5 d
# Excerpt: Inhibition of Proliferation Assay Cell Confluence The confluence value is a surrogate for cell proliferation and growth. The value is expressed as a percent confluence, which represents the fraction of culture dish-surface that is occupied by cells. As the number of cells in the dish increases over time due to proliferation, so will their coverage of that surface increase. Expansion of the cell population on the cell culture-dish surface and confluence have mostly a linear relationship until the cells on the plate surface begin to reach saturation or maximum density. Confluence is determined based on image analysis. Image based software can identify objects in the image field base on changes to pixel density in a grey scale image. The software can then assign a mask to those pixels within the object. Objects can be ‘gated’ out based on size and shape. To determine cell confluence, images of cells are first masked as objects. The surface area of the image that is masked is measured and compared to the total surface area of the culture dish surface to obtain a percent confluence. MDA-231 cancer cells were obtained from ATCC. Cells were cultured in Dulbecco's Modified Eagle Medium (DMEM) supplemented with 10% Fetal Bovine Serum (FBS), 2 mM Glutamax, 1 mM Non Essential Amino Acid (NEAA) solution and 1 mM sodium pyruvate. Compounds were dissolved in DMSO at 10 mM and diluted in cellular medium and tested at 10 μM (micromolar). Final DMSO concentrations were <0.1%. Images were acquired with an IncuCyte Live Cell Imaging microscopy (Essen Bioscience) at every 3 h under cell culture conditions with 10× objective over 4-5 d. Cell confluence was calculated from one field of view per well using the IncuCyte in-built algorithm. Relative confluence values were obtained by normalising each value to the time zero value in each sample.
row,Structure (SMILES),% Confluence
1,"CC[C@H]1OC(=O)[C@H](C)[C@@H](O[C@H]2C[C@@](C)(OC)[C@@H](O)[C@H](C)O2)[C@H](C)[C@@H](O[C@@H]2O[C@H](C)C[C@H](N(C)C)[C@H]2O)[C@](C)(O)C[C@@H](C)CN(C(=O)CCCCCCC[P+](c2ccccc2)(c2ccccc2)c2ccccc2)[C@H](C)[C@@H](O)[C@]1(C)O [Example 9, {8-[(2R,3S,4R,5R,8R,10R,11R,12S,13S,14R)-11-{[(2S,3R,4S,6R)-4-(dimethylamino)-3-hydroxy-6-methyloxan-2-yl]oxy}-2-ethyl-3,4,10-trihydroxy-13-{[(2R,4R,5S,6S)-5-hydroxy-4-methoxy-4,6-dimethyloxan-2-yl]oxy}-3,5,8,10,12,14-hexamethyl-15-oxo-1-oxa-6-azacyclopentadecan-6-yl]-8-oxooctyl}triphenylphosphonium hexafluorophosphate(V)]",105.3%
2,"CC[C@H]1OC(=O)[C@H](C)[C@@H](O)[C@H](C)[C@@H](O[C@@H]2O[C@H](C)C[C@H](N(C)C)[C@H]2O)[C@](C)(O)C[C@@H](C)CN(C(=O)CCCCCCCCCCC[P+](c2ccccc2)(c2ccccc2)c2ccccc2)[C@H](C)[C@@H](O)[C@]1(C)O [Example 12, {12-[(2R,3S,4R,5R,8R,10R,11R,12S,13S,14R)-11-{[(2S,3R,4S,6R)-4-(dimethylamino)-3-hydroxy-6-methyloxan-2-yl]oxy}-2-ethyl-3,4,10,13-tetrahydroxy-3,5,8,10,12,14-hexamethyl-15-oxo-1-oxa-6-azacyclopentadecan-6-yl]-12-oxododecyl}triphenylphosphonium hexafluorophosphate(V)]",6.6%
3,"CC[C@H]1OC(=O)[C@H](C)[C@@H](O)[C@H](C)[C@@H](O)[C@](C)(O)C[C@@H](C)CN(C(=O)CCCCCCCCCCC[PH](c2ccccc2)(c2ccccc2)c2ccccc2)[C@H](C)[C@@H](O)[C@]1(C)O [Example 13, {12-[(2R,3S,4R,5R,8R,10R,11R,12S,13S,14R)-2-ethyl-3,4,10,11,13-pentahydroxy-3,5,8,10,12,14-hexamethyl-15-oxo-1-oxa-6-azacyclopentadecan-6-yl]-12-oxododecyl}triphenylphosphonium hexafluorophosphate(V)]",11%
4,"CC[C@H]1OC(=O)[C@H](C)[C@@H](O[C@H]2C[C@@](C)(OC)[C@@H](O)[C@H](C)O2)[C@H](C)[C@@H](O[C@@H]2O[C@H](C)C[C@H](N(C)C)[C@H]2O)[C@](C)(O)C[C@@H](C)CN(CCCCCCCCCC[PH](c2ccccc2)(c2ccccc2)c2ccccc2)[C@H](C)[C@@H](O)[C@]1(C)O [Example 14, {10-[(2R,3S,4R,5R,8R,10R,11R,12S,13S,14R)-11-{[(2S,3R,4S,6R)-4-(dimethylamino)-3-hydroxy-6-methyloxan-2-yl]oxy}-2-ethyl-3,4,10-trihydroxy-13-{[(2R,4R,5S,6S)-5-hydroxy-4-methoxy-4,6-dimethyloxan-2-yl]oxy}-3,5,8,10,12,14-hexamethyl-15-oxo-1-oxa-6-azacyclopentadecan-6-yl]decyl}triphenylphosphonium iodide]",10.1%
5,"CC[C@H]1OC(=O)[C@H](C)[C@@H](O[C@H]2C[C@@](C)(OC)[C@@H](O)[C@H](C)O2)[C@H](C)[C@@H](O[C@@H]2O[C@H](C)C[C@H](N(C)C)[C@H]2O)[C@](C)(O)C[C@@H](C)CN(CCCCCCCCC[PH](c2ccccc2)(c2ccccc2)c2ccccc2)[C@H](C)[C@@H](O)[C@]1(C)O [Example 15, {9-[(2R,3S,4R,5R,8R,10R,11R,12S,13S,14R)-11-{[(2S,3R,4S,6R)-4-(dimethylamino)-3-hydroxy-6-methyloxan-2-yl]oxy}-2-ethyl-3,4,10-trihydroxy-13-{[(2R,4R,5S,6S)-5-hydroxy-4-methoxy-4,6-dimethyloxan-2-yl]oxy}-3,5,8,10,12,14-hexamethyl-15-oxo-1-oxa-6-azacyclopentadecan-6-yl]nonyl}triphenylphosphonium iodide]",10.7%
6,"CC[C@H]1OC(=O)[C@H](C)[C@@H](O)[C@H](C)[C@@H](O)[C@](C)(O)C[C@@H](C)CN(C(=O)CCCCCCCCCCCCC[P+](c2ccccc2)(c2ccccc2)c2ccccc2)[C@H](C)[C@@H](O)[C@]1(C)O [Example 16, {14-[(2R,3S,4R,5R,8R,10R,11R,12S,13S,14R)-2-ethyl-3,4,10,11,13-pentahydroxy-3,5,8,10,12,14-hexamethyl-15-oxo-1-oxa-6-azacyclopentadecan-6-yl]-14-oxotetradecyl}triphenylphosphonium hexafluorophosphate(V)]",9.9%
7,"CC[C@H]1OC(=O)[C@H](C)[C@@H](O[C@H]2C[C@@](C)(OC)[C@@H](O)[C@H](C)O2)[C@H](C)[C@@H](O[C@@H]2O[C@H](C)C[C@H](N(C)C)[C@H]2O)[C@](C)(O)C[C@@H](C)CN(C)[C@H](C)[C@@H](OC(=O)NCCCCCC[P+](c2ccccc2)(c2ccccc2)c2ccccc2)[C@]1(C)O.[Br-] [Example 17, (2R,3R,4R,5R,8R,10R,11R,12S,13S,14R)-11-{[(2S,3R,4S,6R)-4-(dimethylamino)-3-hydroxy-6-methyloxan-2-yl]oxy}-2-ethyl-3,10-dihydroxy-13-{[(2R,4R,5S,6S)-5-hydroxy-4-methoxy-4,6-dimethyloxan-2-yl]oxy}-3,5,6,8,10,12,14-heptamethyl-15-oxo-1-oxa-6-azacyclopentadecan-4-yl N-[6-(triphenylphosphoniumyl)hexyl]carbamate bromide]",82.6%
8,"CC[C@H]1OC(=O)[C@H](C)[C@@H](O[C@H]2C[C@@](C)(OC)[C@@H](O)[C@H](C)O2)[C@H](C)[C@@H](O[C@@H]2O[C@H](C)C[C@H](N(C)C)[C@H]2OC(C)=O)[C@](C)(O)C[C@@H](C)CN(C)[C@H](C)[C@@H](OC(=O)NCCCCCCCCCC[P+](c2ccccc2)(c2ccccc2)c2ccccc2)[C@]1(C)O.[Br-] [Example 18, (2S,3R,4S,6R)-4-(dimethylamino)-2-{[(2R,3R,4R,5R,8R,10R,11R,12S,13S,14R)-2-ethyl-3,10-dihydroxy-13-{[(2R,4R,5S,6S)-5-hydroxy-4-methoxy-4,6-dimethyloxan-2-yl]oxy}-3,5,6,8,10,12,14-heptamethyl-15-oxo-4-({[10-(triphenylphosphosphoniumyl)decyl]carbamoyl}oxy)-1-oxa-6-azacyclopentadecan-11-yl]oxy}-6-methyloxan-3-yl acetate bromide]",9.6%
9,"CC[C@H]1OC(=O)[C@H](C)[C@@H](O[C@H]2C[C@@](C)(OC)[C@@H](O)[C@H](C)O2)[C@H](C)[C@@H](O[C@@H]2O[C@H](C)C[C@H](N(C)C)[C@H]2O)[C@](C)(O)C[C@@H](C)CN(C)[C@H](C)[C@@H](OC(=O)NCCCCCCCCCC[P+](c2ccccc2)(c2ccccc2)c2ccccc2)[C@]1(C)O.[Br-] [Example 19, (2R,3R,4R,5R,8R,10R,11R,12S,13S,14R)-11-{[(2S,3R,4S,6R)-4-(dimethylamino)-3-hydroxy-6-methyloxan-2-yl]oxy}-2-ethyl-3,10-dihydroxy-13-{[(2R,4R,5S,6S)-5-hydroxy-4-methoxy-4,6-dimethyloxan-2-yl]oxy}-3,5,6,8,10,12,14-heptamethyl-15-oxo-1-oxa-6-azacyclopentadecan-4-yl N-[10-(triphenylphosphoniumyl)decyl]carbamate bromide]",9.7%
10,"CC[C@H]1OC(=O)[C@H](C)[C@@H](O[C@H]2C[C@@](C)(OC)[C@@H](O)[C@H](C)O2)[C@H](C)[C@@H](O[C@@H]2O[C@H](C)C[C@H](N(C)C)[C@H]2O)[C@](C)(O)C[C@@H](C)CN(C)[C@H](C)[C@@H](OC(=O)NCCCCCCCC[P+](c2ccccc2)(c2ccccc2)c2ccccc2)[C@]1(C)O.[Br-] [Example 20, (2R,3R,4R,5R,8R,10R,11R,12S,13S,14R)-11-{[(2S,3R,4S,6R)-4-(dimethylamino)-3-hydroxy-6-methyloxan-2-yl]oxy}-2-ethyl-3,10-dihydroxy-13-{[(2R,4R,5S,6S)-5-hydroxy-4-methoxy-4,6-dimethyloxan-2-yl]oxy}-3,5,6,8,10,12,14-heptamethyl-15-oxo-1-oxa-6-azacyclopentadecan-4-yl N-[8-(triphenylphosphoniumyl)octyl]carbamate bromide]",13.5%
11,"CC[C@H]1OC(=O)[C@H](C)[C@@H](O)[C@H](C)[C@@H](O[C@@H]2O[C@H](C)C[C@H](N(C)C)[C@H]2O)[C@](C)(O)C[C@@H](C)CN(C(=O)CCCCCCCCCCCCC[P+](c2ccccc2)(c2ccccc2)c2ccccc2)[C@H](C)[C@@H](O)[C@]1(C)O [Example 21, {14-[(2R,3S,4R,5R,8R,10R,11R,12S,13S,14R)-11-{[(2S,3R,4S,6R)-4-(dimethylamino)-3-hydroxy-6-methyloxan-2-yl]oxy}-2-ethyl-3,4,10,13-tetrahydroxy-3,5,8,10,12,14-hexamethyl-15-oxo-1-oxa-6-azacyclopentadecan-6-yl]-14-oxotetradecyl}triphenylphosphonium hexafluorophosphate(V)]",8%
12,CC[C@H]1OC(=O)[C@H](C)[C@@H](O[C@H]2C[C@@](C)(OC)[C@@H](O)[C@H](C)O2)[C@H](C)[C@@H](O[C@@H]2O[C@H](C)C[C@H](N(C)C)[C@H]2O)[C@](C)(O)C[C@@H](C)CN(CCCCCC(=O)N(C)CC[P+](c2ccccc2)(c2ccccc2)c2ccccc2)[C@H](C)[C@@H](O)[C@]1(C)O.[Br-] [Example 22],102.7%
